Series [1] concerns the target T1, FAAH (Fatty Acid Amide Hydrolase) (Mus musculus, UniProt O08914).
T1 construct: The membrane homogenates are prepared extemporaneously by homogenizing the tissues; from tissue; host or cells: mouse brain (minus the cerebellum), membrane homogenate
T1 sequence (O08914 1-579): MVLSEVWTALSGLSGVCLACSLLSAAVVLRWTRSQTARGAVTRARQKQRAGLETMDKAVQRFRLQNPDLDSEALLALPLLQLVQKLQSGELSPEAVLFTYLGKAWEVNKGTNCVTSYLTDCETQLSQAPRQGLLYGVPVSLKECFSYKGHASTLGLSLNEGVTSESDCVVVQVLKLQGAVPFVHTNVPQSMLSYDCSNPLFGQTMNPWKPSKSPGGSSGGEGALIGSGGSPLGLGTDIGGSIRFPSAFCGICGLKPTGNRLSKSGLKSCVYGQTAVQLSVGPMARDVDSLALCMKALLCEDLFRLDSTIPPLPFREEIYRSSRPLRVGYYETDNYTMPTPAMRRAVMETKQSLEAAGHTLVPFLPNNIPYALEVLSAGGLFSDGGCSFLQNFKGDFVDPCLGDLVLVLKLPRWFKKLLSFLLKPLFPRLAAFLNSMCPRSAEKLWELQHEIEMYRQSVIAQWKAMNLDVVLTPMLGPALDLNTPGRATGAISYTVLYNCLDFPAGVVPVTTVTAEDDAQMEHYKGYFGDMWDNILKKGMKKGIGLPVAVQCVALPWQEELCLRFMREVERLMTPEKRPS
The experiment in a line: radioenzymatic test, hydrolysis of anandamide [ethanolamine 1-3H] with FAAH (protocol 1). It is filed as biochemical. Conditions: mouse brain membrane homogenate, anandamide 10 μM, 20 min preincubation at 25° C., read-out: IC50 (concentration that inhibits 50% of the control enzymatic activity of FAAH). The procedure: (§1) The compounds of the invention underwent pharmacological tests to determine their inhibitory effect on the enzyme FAAH (Fatty Acid Amide Hydrolase).
Thus, mouse brains (minus the cerebellum) are removed and stored at −80° C. The membrane homogenates are prepared extemporaneously by homogenizing the tissues using a Precellys® machine in reaction buffer (10 mM Tris-HCl, pH=8, 150 mM NaCl and 1 mM ethylenediaminetetraacetic acid (EDTA)). The enzymatic reaction is performed in 96-well Multiscreen filtration plates in a final volume of 70 μl. Reaction buffer supplemented with fatty acid-free bovine serum albumin (BSA, 1 mg/ml) is used for the enzymatic reaction and the dilution of the compounds and of the anandamide [ethanolamine 1-^3H]. The reaction buffer containing BSA (43 μl/well), the diluted test compounds at various concentrations (7 μl/well containing 1% DMSO) and the membrane preparation (10 μl/well, i.e. 200 μg of tissue per test) are successively added to the wells. After preincubation for 20 minutes of the compounds with the enzyme at 25° C., the reaction is started by adding anandamide [ethanolamine 1-^3H](specific activity of 15-20 Ci/mmol) diluted with cold anandamide (10 μl/well, final concentration of 10 μM, 0.01 μCi per test). After incubation for 20 minutes at 25° C., the enzymatic reaction is stopped by adding a 5M solution of activated carbon prepared in 1.5M NaCl buffer and 0.5M HCl (50 μl/well). The mixture is stirred for 10 minutes then the aqueous phase containing the ethanolamine [1-^3H] is recovered by filtration under vacuum and counted by liquid scintillation.

The target of series [2] is T1, FAAH (Fatty Acid Amide Hydrolase). The experiment in a line: fluorescent enzymatic test, hydrolysis of AAMC with FAAH (protocol 2). The conditions noted are these: mouse brain homogenate, AAMC 10 μM, 40 min at 37° C., read-out: IC50 (concentration that inhibits 50% of the control enzymatic activity of FAAH). It is filed as biochemical. The procedure:
as §1
Thus, mouse brains (minus the cerebellum) are withdrawn and stored at −80° C. The brain homogenates are prepared extemporaneously by homogenizing the tissues using a Precellys® machine in reaction buffer (10 mM Tris-HCl, pH=8, 150 mM NaCl and 1 mM ethylenediamine-tetraacetic acid (EDTA)). The enzymatic reaction is performed in black polystyrene 384-well plates in a final volume of 50 μL. Reaction buffer supplemented with fatty acid-free bovine serum albumin (BSA, 1 mg/ml) is used for the enzymatic reaction, the dilution of the compounds and the dilution of the AAMC. Reaction buffer containing the BSA (25 μl/well), the diluted test compounds at various concentrations (5 μl/well containing 1% DMSO) and the membrane preparation (10 μL/well, i.e. 200 μg of tissue per test) are successively added to the wells. After preincubation for 20 minutes of the compounds with the enzyme at 25° C., the reaction is started by adding 10 μL of substrate per well (AAMC, final concentration of 10 μM). After incubation for 40 minutes at 37° C., the aminomethyl coumarin (AMC) produced is measured by fluorescent counting (Envision plate reader).

For `O=C(NC[C@H]1C[C@@H]2CN(c3cccc(C(F)(F)F)n3)C[C@@H]2C1)OCc1cscn1` [Compound No. 1, thiazol-4-ylmethyl ({(3aR,5s,6aS)-2-[6-(trifluoro-methyl)pyrid-2-yl]octahydrocyclopenta[c]pyrrol-5-yl}methyl)carbamate (exo)], the IC50 in series [1] turned out to be 200 nM.
Usually melting point stands for the temperature of the solid-liquid transition. Compound `O=C(NC[C@H]1C[C@@H]2CN(c3ccc(-c4ccc(F)cc4)cn3)C[C@@H]2C1)OCc1cscn1` [Compound No. 3, thiazol-4-ylmethyl ({(3aR,5s,6aS)-2-[5-(4-fluoro-phenyl)pyrid-2-yl]octahydrocyclopenta[c]pyrrol-5-yl}-methyl)carbamate (exo)] displayed a melting point of 129 to 131 °C. Also, the IC50 in series [1] came to 0.98 nM.
For `Cn1ncnc1COC(=O)NC[C@H]1C[C@@H]2CN(c3cccc(-c4cncc(F)c4)n3)C[C@@H]2C1` [Compound No. 8, (1-methyl-1H-1,2,4-triazol-5-yl)methyl {[(3aR,5s,6aS)-2-(5′-fluoro-2,3′-bipyrid-6-yl)octahydrocyclopenta[c]-pyrrol-5-yl]methyl}carbamate (exo)] the same measures were 136 to 138 °C and 1.1 nM.
`CNC(=O)c1cc(COC(=O)NCC[C@@H]2C[C@@H]3CN(c4ccc(Br)cn4)C[C@@H]3C2)on1` [Compound No. 10, [3-(methylcarbamoyl)isoxazol-5-yl]methyl {2-[(3aR,5r,6aS)-2-(5-bromopyrid-2-yl)octahydrocyclopenta[c]-pyrrol-5-yl]ethyl}carbamate (endo)] showed a melting point of 157 to 159 °C. Moreover, in series [1], the IC50 worked out at 2.4 nM.
Take `CNC(=O)c1cc(COC(=O)NC2C3CN(c4ccc5cc(F)ccc5n4)CC32)on1` (centres unmarked) [Compound No. 14, [3-(methylcarbamoyl)isoxazol-5-yl]methyl [3-(6-fluoro-quinolin-2-yl)-3-azabicyclo[3.1.0]hex-6-yl]carbamate]: the melting point is 220 to 222 °C. Also, in series [2], the IC50 came to 12 nM.
Consider `Cn1cc(-c2ccc(N3CC4CC(CNC(=O)OCc5cscn5)CC4C3)nc2)cn1` [compound 4, thiazol-4-ylmethyl ({(3aR,5s,6aS)-2-[5-(1-methyl-1H-pyrazol-4-yl)pyrid-2-yl]octahydrocyclopenta[c]pyrrol-5-yl}methyl)carbamate (exo)], for which the IC50 in series [1] is 8.5 nM.
On the same count and under the same terms, to `Cn1ncnc1COC(=O)NC[C@H]1C[C@@H]2CN(c3ccc(-c4ccc(F)cc4)cn3)C[C@@H]2C1` [compound 7, (1-methyl-1H-1,2,4-triazol-5-yl)methyl ({(3aR,5s,6aS)-2-[5-(4-fluorophenyl)pyrid-2-yl]octahydrocyclopenta[c]-pyrrol-5-yl}methyl)carbamate (exo)] belongs 170 nM.

Values taken from US8865738B2, “5-membered heterocyclic compound cyclopenta[C]pyrrolylalkylcarbamate derivatives, preparation thereof, and therapeutic use thereof” (Sanofi, priority 2009, dated 2014).
